Measurements: patent US12329967B2, “State-dependent peripheral neuromodulation to treat bladder dysfunction” (Duke University, priority 2015, dated 2025)

System: bladder
Assay: in vivo cystometry (CMG) in urethane anesthetized rats, PGE2 model of bladder dysfunction
Set-up: species or system female Wistar rats
Conditions: intravesical infusion of PGE2 (100 μM), no stimulation, vs control rats (FIG. 5A)
Description: In the following examples, an accepted animal model of bladder dysfunction was used: the PGE2 (prostoglandin E2) model, in which installation of PGE2 into rats induces a hyperactive bladder response. In addition, a cat model of bladder dysfunction was used. […] Acute experiments were conducted in urethane (1.2 g/kg, SC) anesthetized female Wistar rats using in vivo cystometry (CMG). A PE-90 catheter was placed to measure bladder pressure and for intravesical infusion of saline and PGE2 (100 μM). Bipolar electrodes were placed on the external urethral sphincter (EUS) to measure electromyographic (EMG) activity and a bipolar nerve cuff electrode was placed on the sensory branch of the pudendal nerve for stimulation. In a subset of trials after PGE2 infusion, electrical stimulation of the sensory branch of the pudendal nerve was delivered at different amplitudes (0.5-10× EUS reflex threshold, T) and frequencies (1-50 Hz). T may be determined as follows: a low frequency electrical signal, typically 1 Hz, is applied and the intensity of stimulation is increased (either by increasing the voltage or the current of the signal, preferably the current) until the pudendal nerve stimulation pulse produces a reflex EMG response in the EUS.

## CCCCC[C@H](O)/C=C/[C@H]1[C@H](O)CC(=O)[C@@H]1C/C=C\CCCC(=O)O [PGE2, prostoglandin E2]
  changes in bladder capacity: reduces bladder capacity
